The structures appear in SMILES notation. Structures can show the parent of a compound that is named as a salt. Where two headings read alike, the source gives them in different places.

Common to all, as to assay type: cell-based
The test system of test [1] is PAF-induced platelet aggregation. Description: Inhibition of PAF-induced platelet aggregation (aggregometry, washed platelets). To be noted: Oryctolagus cuniculus, rabbit washed platelets, on the maximum aggregation values of the PAF standard curve, read-out: Paf-antagonism IC₅₀. The procedure: (§1) Platelets are prepared starting from blood samples obtained by means of a carotid cannula from male albino New Zealand rabbits (2-2.5 kg), subjected to anticoagulant treatment with sodium citrate dihydrate (3.2%) 1:10. Blood is centrifuged (150xg, 10 min, 22°C) to separate the platelet-rich plasma fraction (PRP) from erythrocytes. Platelets are separated from plasmatic components by serial washings and centrifugations (Blood, 1986, 62:337), thereafter they are suspended in a physiological buffer at a concentration of 5 x 10⁵/ml. A 400 µl volume of the above mentioned suspension is placed into the cuvette of a multicanal aggregometer (Aggrecoder HU) where it is kept at constant temperature and stirring. After stabilization, platelets are added with 50 µl of physiological buffer containing 100 µM acetylsalicylic acid and apirase 5 mg/ml, in order to block any non PAF-related platelet activation metabolic pathways. Subsequently the platelet suspensions are added with 50 µl of the different solutions to be tested. Changes in light transmission, due to platelet aggregation in the suspension, are recorded and expressed as percent platelet aggregation, according to the procedure by Born and Cross (J. Physiol., 1962, 162:67). Standard curve is performed with PAF within a concentration range of 0.1-1 nM.
Capability to inhibit PAF-induced platelet aggregation is evaluated by means of the aggregometry technique in suspensions of rabbit washed platelets, obtained by means of the same procedure as described in Example 32. For this purpose, the inhibition potency of the products under test, expressed as the corresponding IC₅₀, is evaluated on the maximum aggregation values obtained in PAF standard curve.

In another test the test system is HL-60 tumor cells. The test can be described thus: Cytotoxic activity, Trypan Blue exclusion. Particulars: Homo sapiens, read-out: Cytotoxicity EC₅₀. The procedure: Suspensions of HL-60 Line cells, obtained starting from human promyelocyte leukemia, are incubated in 6-well culture plates for 24 hours at 37°C, at a concentration of 1 x 10⁶ cells/ml, in the presence of the test products, which have previously been dissolved in the culture medium. Cytotoxicity is measured by means of the Trypan Blue exclusion technique (Practical Immunology, pp 29-32, Oxford, England : Blackwell Scientific Publications, 1976).

The subject of a further test is rabbit washed platelets. Description: Platelet aggregating effect (aggregometry, washed platelets). To be noted: Oryctolagus cuniculus, suspension of rabbit washed platelets, acetylsalicylic acid and apirase added, read-out: Aggregation EC₅₀. The procedure:
as §1

[2] abbreviates: HL-60 cells, 1 x 10⁶ cells/ml, 24 hours at 37°C.

`C[N+](C)(C)CCCCCCCCCCOCC1COc2ccccc2O1` (centres unmarked) [Example 4, N-[10-[[(1,4-Benzodioxan-2-yl)methyl]oxy]decyl]-N,N,N-trimethylammonium bromide]: the IC50 in test [1] was determined as 130 µM. Also, in the test with HL-60 tumor cells (HL-60, 24 h), the EC50 came to 70 µM. The like results for `C[N+](C)(C)CCCCCCCCCCCCCCCCOCC1COc2ccccc2O1` (centres unmarked) [Example 5, N-[16[[(1,4-Benzodioxan-2-yl)methyl]oxy]hexadecyl]-N,N,N-trimethylammonium bromide] were, in that order, 20 µM and 18 µM. `C[N+](C)(C)CCCCCCOCCCCCCCCCCOCC1COc2ccccc2O1` (centres unmarked) [Example 6, N-[6-[[(10-[[1,4-Benzodioxan-2-yl)methyl]oxy]decyl]oxy]hexyl]-N,N,N-trimethylammonium bromide]: the EC50 in the test on HL-60 tumor cells (setting [2]) is 11 µM. Same read-out and setting: the result for `C[N+](C)(C)CCCCCCCCCCOCCCCCCCCCCOCC1COc2ccccc2O1` (centres unmarked) [Example 7, N-[10-[[10-[[(1,4-Benzodioxan-2-yl)methyl]oxy]decyl]oxy]decyl]-N,N,N-trimethylammonium bromide] reads 15 µM. For `CC[N+](CC)(CC)CCCCOCC1COc2ccccc2O1` (centres unmarked) [Example 8, N-[4-[[(1,4-Benzodioxan-2-yl)methyl]oxy]butyl]-N,N,N-triethylammonium bromide], in the test with rabbit washed platelets, the EC50 was > 190 µM.

Take `CC[N+](CC)(CC)CCCCCCCCCCOCC1COc2ccccc2O1` (centres unmarked) [Example 10, N-[10-[[(1,4-Benzodioxan-2-yl)methyl]oxy]decyl]-N,N,N-triethylammonium bromide]: in test [1], the IC50 was 90 µM. In the test with HL-60 tumor cells (HL-60, 24 h), the EC50 turned out to be 30 µM. With `c1ccc2c(c1)OCC(COCCCCCCCCCCN1CCCCC1)O2` (centres unmarked) [Example 15, N-[10-[[(1,4-Benzodioxan-2-yl)methyl]oxy]decyl]piperidine hydrochloride], the EC50 in the test with HL-60 tumor cells (setting [2]) turned out to be 20 µM. Same read-out and setting: the figure for `c1ccc2c(c1)OCC(COCCCCN1CCOCC1)O2` (centres unmarked) [Example 16, N-[4-[[(1,4-Benzodioxan-2-yl)methyl]oxy]butyl]morpholine hydrochloride] is 18 µM; for `c1ccc2c(c1)OCC(COCCCCCCCCCCN1CCOCC1)O2` (centres unmarked) [Example 19, N-[10-[[(1,4-Benzodioxan-2-yl)methyl]oxy]decyl]morpholine hydrochloride] it is 30 µM. In the case of `C[N+]1(CCCCCOCC2COc3ccccc3O2)CCCCC1` (centres unmarked) [Example 21, N-[5-[[(1,4-Benzodioxan-2-yl)methyl]oxy]pentyl]-N-methylpiperidinium iodide], the EC50 in the test with rabbit washed platelets was > 190 µM. `C[N+]1(CCCCCCCCCCOCC2COc3ccccc3O2)CCCCC1` (centres unmarked) [Example 23, N-[10-[[(1,4-Benzodioxan-2-yl)methyl]oxy]decyl]-N-methylpiperidinium bromide]: the IC50 in test [1] was determined as 75 µM. Further, the EC50 with HL-60 tumor cells (HL-60, 24 h) stood at 20 µM. Take `C[N+]1(CCCCCCCCCCCCCCCCOCC2COc3ccccc3O2)CCCCC1` (centres unmarked) [Example 24, N-[16-[[(1,4-Benzodioxan-2-yl)methyl]oxy]hexadecyl]-N-methylpiperidinium bromide]: the EC50 in the test with HL-60 tumor cells (setting [2]) turned out to be 6 µM. Still for that read-out and setting: the figure for `C[N+]1(CCCCCCOCCCCCCCCCCOCC2COc3ccccc3O2)CCCCC1` (centres unmarked) [Example 25, N-[6-[[(10-[[1,4-Benzodioxan-2-yl)methyl]oxy]decyl]oxy]hexyl]-N-methylpiperidinium bromide] is 3 µM; for `C[N+]1(CCCCCCCCCCOCCCCCCCCCCOCC2COc3ccccc3O2)CCCCC1` (centres unmarked) [Example 26, N-[10-[[10-[[(1,4-Benzodioxan-2-yl)methyl]oxy]decyl]oxy]decyl]-N-methylpiperidinium bromide] it is 28 µM. On to `C[N+]1(CCCCCCCCCCOCC2COc3ccccc3O2)CCOCC1` (centres unmarked) [Example 30, N-[10-[[(1,4-Benzodioxan-2-yl)methyl]oxy]decyl]-N-methylmorpholinium iodide], for which the IC50 in test [1] was 190 µM. Also, the EC50 with HL-60 tumor cells (HL-60, 24 h) came out at 30 µM.

These data come from patent publication EP0494283B1, “1,4-BENZODIOXANE DERIVATIVES, PROCESS FOR THE PREPARATION THEREOF AND PHARMACEUTICAL COMPOSITIONS THEREFROM” (LABORATORIOS MENARINI S.A., priority 1990, dated 1992).
